The values that follow come from US20030134859A1 (SANKYO COMPANY, LIMITED, priority 2000, published 2003).

Counter-ions that a name gives are not always drawn.

The test system of test [1] is Mouse preadipocyte strain 3T3-L1. As to the kind of experiment: Inhibition of differentiation as an indication of acetic acid uptake. Format: cell-based. Conditions: Mus musculus, 3T3-L1, 0.1 μM test substance, control (0.01% dimethylsulfoxide) = 100%, read-out: Rate of Uptake (%) of [2-14C] acetic acid. How it is done:
As the basal medium, Dulbecco's modified Eagle's (DEM) medium (NISSUI PHARMACEUTICAL CO., LTD) was used. […] All culturing in the present Test Example was carried out in a CO2 incubator at 37° C. and 10% CO2 concentration.
The successively cultured 3T3-L1 cells were inoculated in a Biocoat Collagen I 96-well white/clear plate (Becton Dickinson and Co.) at a concentration of 4,900 cells/well, and were cultured in the basal medium containing added 10% (v/v) inactivated bovine fetal serum (FBS) for 10 days.
The medium was replaced with a differentiation-inducing medium in which inactivated FBS (final concentration: 5%), insulin (Sigma-Aldrich Japan K. K., final concentration: 10 μg/mL), isobutyl methyl xanthine (Aldrich K. K., final concentration: 0.5 mM) and dexamethazone (final concentration: 1 μM) were added so as to be at the final concentrations indicated in the parentheses. The cells were divided in the following 2 groups and were cultured for 4 days; 1) in the presence of 0.01% (v/v) dimethylsulfoxide, and 2) in the presence of 0.01% (v/v) dimethylsulfoxide in which was dissolved 1 mM of the test substance (final concentration of 0.1 μM). Then, the medium was further replaced with a maintenance medium in which inactivated […] and insulin were added to the base medium so as to be at final concentrations of 5% and 100 ng/mL, respectively, and the cells were cultured for 2 days.
The inhibitory activity of the test compound against cell differentiation was assayed by using uptake of [2-^14C] acetic acid into the cultured cells as an indicator. […] Then the cells were further incubated with the newly prepared medium for 1 hr. After washing the well with PBS (−), the cells were dried. To these wells, 100 μL/well of a scintillation cocktail (Hewlett-Packard Co., MICROSCINT-20 PACKARD) were added and their radioactivities were determined with a Packard TopCont microplate Scintillation Counter (Hewlett-Packard Co., PACKARD) and the uptake level of [2-^14C] acetic acid into the cultured cell was calculated.
On the basis of the calculated uptake level of [2-^14C] acetic acid into the cultured cells, the relative uptake level of [2-^14C] acetic acid in the group treated with the test compound was calculated against the uptake level of [2-^14C] acetic acid in the presence of 0.01% (v/v) dimethylsulfoxide solution described in 1) (100%).
Value=Uptake Level (cpm) of [2-^14C] Acetic Acid in the Presence of the Test Substance
Control=Uptake Level (cpm) of [2-^14C] Acetic Acid in the Control Group (0.01% dimethylsulfoxide)
Uptake Rate (%) of [2-^14C] Acetic Acid=100×[Value]/[Control]

The subject of the next test is leptin production. As to the kind of experiment: Enhancing activity for leptin production in adipocytes (ELISA). Conditions: Rattus norvegicus, Adipocyte, 24 h, leptin concentration as % of control group, read-out: Facilitating activity to produce leptin; for activity at 0.1 µM: 100 nm. The format is cell-based, rat. On the procedure: Hanks solution was used for collection of adipose tissue. The Hanks solution was prepared by filtration of a mixed solution (pH: 7.5) of 120 mM NaCl, 4.8 mM KCl, 0.74 mM MgSO4, 0.30 mM Na2HPO4, 0.40 mM KH2PO4, 20 mM HEPES, 0.05% (w/v) glucose, 2% (w/v) BSA (Sigma-Aldrich Japan K. K., Cat. No. A7888), 0.95 mM CaCl2, 4.17 mM NaHCO3 and 1% (v/v) penicillin-streptomycin liquid (GIBCO BRL, Cat. No. 15140-122). The adipocytes were cultured in Dulbecco's modified Eagle's medium (GIBCO BRL, Cat. No. 11995-040) mixed with DMEM/F-12 (GIBCO BRL, Cat. No. 11320-033) at a ratio of 1:1, and added 0.2% (v/v) Hanks solution, 0.2 μg/L sodium selenite (GIBCO BRL, Cat. No. 13012-018), 0.002% (v/v) ethanolamine, 25 mM HEPES and 1% (v/v) penicillin-streptomycin liquid (GIBCO BRL, Cat. No. 15140-122). As many as possible of the other reagents used were special grade. In this experiment, the cells were cultured in a CO2 incubator (37° C., 95% humidity, 5% CO2).
Male Wistar Imamichi rats of 6 weeks old were sacrificed by bleeding following decapitation, and adipose tissue was removed from the epididymis and sectioned after the vessels were removed in warmed Hanks solution at 37° C. and were weighed. One (1) mL of Hanks solution containing 10 mg collagenase (Wako Pure Chemical Industries, Ltd., 034-10533) was added to the adipose tissue prepared. The solution was transferred into a tube having a volume of 50 mL, and the cells were evenly dispersed by incubation under gentle shaking at 37° C., 90 rpm, for 50 min. Then 20 mL of Hanks solution were added and filtrated through Nylon-mesh with a mesh diameter of 200 μm for removal of undigested tissue pieces. The floating adipocytes were separated from sediments and substances located in the lower layer by centrifugation at 1,000 rpm for 1 min at room temperature. The sediment and 22 mL of the low layer were pulled out with a probe, and the floating adipocytes were recovered. This procedure was repeated twice with Hanks solution and for 4 times with the culture medium. After these procedures the adipocytes were suspended in the culture medium at a volume of 60 mL per 1 g of the adipose tissue weighed previously. 100 μL of the suspended solution were plated in each well of a 96-well microplate (ASAHI TECHNO GLASS Corp.) In the group treated with the test compound, 1 μL/well of DMSO solution containing the dissolved the test compound at concentrations of 200 μM, 20 μM, 2 μM and 0.2 μM (final concentrations of the test compound: 1 μM, 100 nM, 10 nM and 1 nM, respectively) was plated in each of the well. In the control group, 1 μL/well of DMSO (final concentration: 0.1% (v/v)) was plated in each well. The plate was placed stationary in a CO2 incubator for 1 hr or longer, and the contents in the solution were equilibrated at 37° C. After they were equilibrated, the solution in each well was stirred with a magnetic stirrer in a water bath and the suspended solution maintained at 37° C. was plated into each well of the plate at 100 μL/well. After incubation of the cells for 24 hr, the suspended solution of cells was filtrated through a filter for the microplate, MultiScreen (MILLOPORE, MDV-N65). The concentration of leptin in the filtrated solution was determined with ELISA methods by using a Rat Leptin Determination Kit-IBL (Immuno-Biological Laboratories Co., Ltd., Cat. No. 17195). The facilitating activity of the compound to produce leptin was calculated from the following equation based on the concentration of leptin determined.
Facilitating Activity of the Compound to Produce Leptin (%)=(A/B)×100
A: Concentration of Leptin in the Treated Group with the Test Compound.
B: Concentration of Leptin in the Control Group.
Background: ELISA stands for enzyme-linked immunosorbent assay.

The next test concerns Rat white adipocytes. As to the kind of experiment: Inhibition of the differentiation of adipocytes (Oil Red O). The note with it: 100 nM test compound, 5 days, Oil Red O ABS550, control = 100%, blank = 0%, Table 3; for activity at 0.1 µM: Rattus norvegicus, Adipocyte, 120 h, read-out: Rate of Differentiation (%). The format is cell-based. On the procedure: Rat white adipocytes contained in the white adipocyte culture kit purchased from HOKUDO were used. As the medium for proliferation and for differentiation-inducing, the medium contained in the white adipocyte culture kit purchased from HOKUDO was used. The cells in the present experiment were cultured in a CO2 incubator (37° C., 95% R.H., 5% CO2).
Immediately after arrival of the purchased cells, all medium for transportation was discarded and replaced with 5 ml of proliferation medium (/25 cm^2-flask) and the cells were cultured for one day. Then, a cell suspension was prepared with proliferation medium so as to be 83,000 cells/mL, and the cell suspension was plated into a type I 96-well collagen-coated microplate (SUMITOMO BAKELITE CO., ltd.) so as to be 5,000 cells/well (60 μL/well).
On the next day, all the proliferation medium was discarded and replaced with 147 μL/well of differentiation-inducing medium. Further, 1) in the group treated with the test compound, 3 μL/well of the solution, in which a test compound (100 μM) was dissolved in DMSO solution and diluted with differentiation-inducing medium by 20 times (final concentration of the test compound: 100 nM, final concentration of DMSO solution: 0.1% (v/v)), were added to the well where the cells were plated. 2) In the control group, 3 μL/well of DMSO solution that was diluted with differentiation-inducing medium by 20 times (final concentration of DMSO: 0.1% (v/v)) were added to the well where the cells were plated. Further, 3) in the blank group, 3 μL/well of DMSO solution that was diluted with differentiation-inducing medium by 20 times (final concentration: 0.1% (v/v)), was added to the blank well.
After culturing for 5 days, all differentiation-inducing medium was discarded and replaced with 60 μL of 10% (v/v) formaldehyde solution (for fixation) in each well and the cells were kept stationary for 20 min at room temperature. After this, the fixative solution was discarded and replaced with 60 μL of 0.2% (v/v) Triton X (Sigma-Aldrich Japan K. K.) solution in each well and kept stationary for 5 min at room temperature. Then all Triton X solution was discarded and replaced with 60 μL of 60% (v/v) isopropanol solution containing dissolved Oil Red O (Sigma-Aldrich Japan K. K.) so as to be 0.3%, which was adipose tissue staining solution, and the well was left stationary for 10 min at room temperature. After the adipose tissue staining solution was discarded, the well was washed twice with 60 JIL of 60% isopropanol solution. Then, 100 μL of the DMSO solution were added to each well and stirred for 5 min at room temperature, The absorbance was measured at 550 nm (ABS550) with a multi-plate reader (LabSystems), and the stained amount with Oil Red O was determined. The measured level at ABS550 in the control group was defined as 100%, while the level at ABS550 in the blank group was defined as 0%. The differentiation rate (%) of the adipocytes treated with the test compound was calculated.

On to `Cc1cccc(C(C)C)c1NC(=O)c1cc([N+](=O)[O-])ccc1Cl` [Example 19, N-(2-Isopropyl-6-methylphenyl)-(2-chloro-5-nitrophenyl)carboxamide], for which, in test [1], the activity at 0.1 µM is 64.8%. Still for that read-out and setting: next, `O=C(O)c1ccc(NC(=O)c2cc([N+](=O)[O-])ccc2Cl)cc1` [Example 27, 4-[(2-Chloro-5-nitrophenyl)carbonylamino]benzoic Acid]: 66%.

On to `CCOC(=O)c1c[nH]nc1NC(=O)c1cc([N+](=O)[O-])ccc1Cl` [Example 71, N-(4-Ethoxycarbonylpyrazol-3-yl)-(2-chloro-5-nitrophenyl)carboxamide], for which, in test [1], the activity at 0.1 µM amounted to 65.8%. For the compound `CC(=O)Oc1c(C)c(C)c2c(c1C)C(=O)CC(C)(COc1ccc(NC(=O)c3cc([N+](=O)[O-])ccc3Cl)cc1)O2` (stereo not shown) [Example 91, N-[4-(6-Acetoxy-2,5,7,8-tetramethyl-4-oxochroman-2-ylmethoxy)phenyl]-(2-chloro-5-nitrophenyl)carboxamide], in the test with leptin production, the activity at 1 µM amounted to 114% and the activity at 0.1 µM was 110%. Further, the activity at 0.1 µM in test [1] amounted to 85.8%. As for `CCCCCCCCCCCCCCc1sc(NC(=O)c2cc([N+](=O)[O-])ccc2Cl)nc1-c1ccccc1` [Example 109, N-(4-Phenyl-5-tetradecylthiazol-2-yl)-(2-chloro-5-nitrophenyl)carboxamide], in the test on leptin production, the activity at 1 µM was found to be 112%. Besides, in test [1], the activity at 0.1 µM was determined as 64.6%. Turning to `Cc1ccc(NS(=O)(=O)c2ccc(NC(=O)c3cc([N+](=O)[O-])ccc3Cl)cc2)cc1` [Example 144, N-[4-(4-Tolylaminosulfonyl)phenyl]-(2-chloro-5-nitrophenyl)carboxamide], in test [1], the activity at 0.1 µM was determined as 82.2%. Take `Nc1ccc(NC(=O)c2cc([N+](=O)[O-])ccc2Cl)cc1` [Example 180, N-(4-Aminophenyl)-(2-chloro-5-nitrophenyl)carboxamide]: the “Rate of Differentiation (%)” value in the test with Rat white adipocytes stood at 59.1%. As to `CCCCCCCCN(CCCCCCCC)c1ccc(-c2ccc(NC(=O)c3cc([N+](=O)[O-])ccc3Cl)cc2)cc1` [Example 185, N-[4-[4-(N,N-Dioctylamino)phenyl]phenyl]-(2-chloro-5-nitrophenyl)carboxamide Hydrochloride], in the test on leptin production, the activity at 1 µM amounted to 123% and the activity at 0.1 µM worked out at 132%. In addition, in the test on leptin production (10 nm), the activity at 0.01 µM came out at 122%. For `CCCCN(C)c1ccc(-c2ccc(NC(=O)c3cc([N+](=O)[O-])ccc3Cl)cc2)cc1` [Example 210, N-[4-[4-(N-Butyl-N-methylamino)phenyl]phenyl]-(2-chloro-5-nitrophenyl)carboxamide], the activity at 0.1 µM in the test on Rat white adipocytes amounted to 47.6%. As to `CCCN(C)c1ccc(-c2ccc(NC(=O)c3cc([N+](=O)[O-])ccc3Cl)cc2)cc1` [Example 213, N-[4-[4-(N-Methyl-N-propylamino)phenyl]phenyl]-(2-chloro-5-nitrophenyl)carboxamide], in the test on Rat white adipocytes, the activity at 0.1 µM was 47.4%. As to `CCCCCN(C)c1ccc(-c2ccc(NC(=O)c3cc([N+](=O)[O-])ccc3Cl)cc2)cc1` [Example 215, N-[4-[4-(N-Methyl-N-pentylamino)phenyl]phenyl]-(2-chloro-5-nitrophenyl)carboxamide], the activity at 0.1 µM with Rat white adipocytes turned out to be 45.2%.
